Results reported in PMC2409900 (British Journal of Cancer, 2004).
Several values for one entry are separate records, joined by “and”; a condition that tells them apart may be missing. Equal values may be shown once.

Experiments:
rat RBCs = assay: Ex vivo uptake of 667 COUMATE / 667 COUMARIN by RBCs in whole blood; type: in vitro ADME
Method: (§1) Whole blood was removed from female Wistar rats, pooled, centrifuged (2800 g, 4°C, 15 min) and separated into RBCs and plasma. […] 667 COUMATE was also incubated with plasma only. Duplicate samples were maintained at 37°C for 0.5, 1, 3 and 24 h on rollers. Whole blood was acidified by addition of 1 M (pH 3) citrate buffer (9 : 1, v v^−1). […] Plasma was separated from other blood constituents by centrifugation (2800 g, 4°C, 15 min) and the radioactivity was counted.
(§2) The coefficients of variation (interday and intraday) were <10%.

[1] = Pharmacokinetic study: plasma levels after single i.v. or p.o. dose; conditions: for half-life: t1/2β
Method: Female Wistar (155–165 g) rats were purchased from Charles River UK Ltd (Margate, Kent, UK) and housed in a dedicated animal facility. Rats received RM1 rodent maintenance diet (SDS, Kent, UK), water ad libitum and were maintained in positive pressure isolators under a 12 h light–dark cycle. These experiments were approved by the Imperial College Ethical Review Committee and met the standards required by the UKCCCR guidelines ([Workman et al, 1998]). […] Three rats were used for each time point. Rats were subjected to terminal anaesthesia (halothane) and blood was removed by cardiac puncture at 2.5, 5, 15, 30 and 45 min and 1, 3, 8, 16 and 24 h after i.v. administration. […] Plasma and RBCs were prepared from whole blood by centrifugation (2800 g, 4°C, 15 min). […] 7-Hydroxycoumarin (3 μg ml^−1) was used as an internal standard. The organic phase was decanted to a fresh tube and evaporated to dryness under a stream of air at room temperature. […] Briefly, RBCs were mixed with blank plasma (1 : 1, v v^−1) and mixed by inversion in order to reconstitute ‘whole blood’. 7-Hydroxycoumarin (3 μg ml^−1) was added to the whole blood (500 μl). […] Samples were thawed, vortexed for a further 5 min, centrifuged (15 000 g, 15 min) and the supernatant was removed and filtered ([…], acrodisc CR PTFE). The diethyl ether was removed under a stream of air. […] The residues were stored at −20°C in preparation for HPLC analysis.
Pharmacokinetic parameters were calculated using WinNonlin software (Pharsight Corporation, Mountview, CA, USA). The area under the curve (AUC) was calculated using the linear trapezoidal method with extrapolation of the terminal phase to infinity. Other parameters calculated were as follows: elimination rate constant (β); total body clearance (Cl)=dose/AUC; volume of distribution (Vd)=Cl/β; elimination half-life (t1/2β)=0.693/β; bioavailability (%F)=(AUCoral/AUCi.v.) × 100.

STS = tested on: STS; set-up: method as in Ireson et al, 2003; conditions: ref Ireson et al, 2003; cited from earlier work
[2] = Stability of 667 COUMATE in vehicle; type: physicochemical; conditions: HPLC
[3] = set-up: method as in Ireson et al, 2003; conditions: by 4 h; ref Ireson et al, 2003; cited from earlier work
rat liver STS = conditions: cited from earlier work
[4] = tested on: E1S-stimulated nitrosomethylurea-induced mammary tumours; conditions: cited from earlier work
[5] = Ex vivo stability in plasma and whole blood (667 COUMATE/667 COUMARIN ratio); type: in vitro ADME, rat
Method: as §1, with “Duplicate samples were maintained at 37°C for 0.5, 1, 3 and 24 h on rollers.” left out
as §2

[6] = In vivo uptake into RBCs after single p.o. or i.v. dose; conditions: female, Wistar, 10 mg kg^−1, rat
Description: Three rats were used for each time point.
as §2

[7] = female, Wistar, rat, in vivo, iv, 10 mg/kg
[8] = female, Wistar, rat, in vivo, po, 10 mg/kg

O=c1oc2cc(O)ccc2c2c1CCCCC2 [667 COUMARIN, 3-Hydroxy-6-oxo-8,9,10,11-tetrahydro-7H-cyclohepta-[c] [1] benzopyran]
effect of acetazolamide preincubation on uptake into RBCs (rat RBCs; whole rat blood preincubated with acetazolamide (100 μM)): did not affect this uptake
uptake into RBCs (rat RBCs; whole rat blood, 667 COUMARIN 10 μg ml^−1, no acetazolamide): 50%
formation as metabolite of 667 COUMATE in vivo ([1]; rat plasma after i.v. or p.o. 667 COUMATE): only a minor metabolic product
STS inhibitory activity (STS): devoid of any STS inhibitory activity
level of degradation product 667 COUMARIN in vehicle ([2]; 667 COUMATE in vehicle on ice for up to 6 h): below the limit of detection

NS(=O)(=O)Oc1ccc2c3c(c(=O)oc2c1)CCCCC3 [667 COUMATE, 6-oxo-8,9,10,11-tetrahydro-7H-cyclohepta-[c] [1] benzopyran-3-O-sulphamate]
percentage of agent retained by the RBCs (rat RBCs; 24 h after addition to whole rat blood): 48%
percentage of agent taken up by RBCs (two independent analytical methods) (rat RBCs; added to rat whole blood ex vivo): more than 70%
uptake into RBCs after preincubation with acetazolamide (rat RBCs; whole rat blood preincubated 30 min with acetazolamide (100 μM)): 50%
percentage of agent associated with the RBC fraction (rat RBCs; whole rat blood, 30 min incubation, 37°C, 10 μg ml^−1, HPLC): more than 80%
percentage of agent removed on incubation with plasma [3]: 80%
inhibition of rat liver STS (rat liver STS; 10 mg kg^−1, ref Purohit et al, 2000, 2001): 93%
duration of STS inhibition in vivo after a single dose (rat liver STS; rat, hepatic STS, ref Purohit et al, 2001): up to 24 h
inhibition of STS activity in mammary tumours ([4]; nitrosomethylurea-induced mammary tumours in rats, ref Purohit et al, 2000): almost completely inhibit STS activity
growth of E1S-stimulated tumours ([4]; nitrosomethylurea-induced rat mammary model, ref Purohit et al, 2000, 2001): causes a reduction in the growth
parent compound remaining in plasma ([5]; plasma, 3 h incubation): below the limit of detection
parent compound remaining in whole blood ([5]; whole blood, after 48 h incubation): could still be detected
concentration at 30 min ([6]; iv, 30 min after i.v. administration): 19000 ng/mL
concentration at 30 min ([6]; po, 30 min after p.o. administration): 12000 ng/mL
Cl ([1]; 10 mg kg^−1 bolus i.v., rat, Cl=dose/AUC): 53.5 ± 2.6 mL/h
t1/2β ([1]; 10 mg kg^−1 p.o., rat plasma): 1.97 ± 0.3 h
Cl ([1]; 10 mg kg^−1 p.o., rat, Cl=dose/AUC): 54 mL/h and 54.2 ± 2.4 mL/h
Vd ([1]; 10 mg kg^−1 p.o., rat, Vd=Cl/β): 0.1532 ± 0.0187 L/kg
concentration at 8 h ([1]; female, Wistar, rat, in vivo, 10 mg kg^−1): > 100 ng/mL
bioavailability ([1]; female, Wistar, rat, in vivo, 10 mg kg^−1, %F (bioavailability), 10 mg kg^−1 p.o. vs i.v., rat, (AUCoral/AUCi.v.) × 100): 95%
AUC [1, 7]: 35800 ± 1300 ng·h/mL
Cmax [1, 7]: 22800 ± 600 ng/mL
Vd [1, 7]: 0.0939 ± 0.0029 L/kg
k el [1, 7]: 0.000167 s⁻¹
clearance ([1]; female, Wistar, rat, in vivo, iv, 10 mg/kg, Cl, 10 mg kg^−1 bolus i.v., Cl=dose/AUC): 0.883 mL/min
half-life ([1]; female, Wistar, rat, in vivo, iv, 10 mg/kg, 10 mg kg^−1 bolus i.v., rat plasma): 1.2 ± 0.1 h
AUC [1, 8]: 34400 ± 1100 ng·h/mL
Cmax [1, 8]: 11900 ± 400 ng/mL
k el [1, 8]: 8.33e-05 s⁻¹
half-life ([1]; female, Wistar, rat, in vivo, po, 10 mg/kg, 10 mg kg^−1 p.o., rat plasma): 2 h
time at which maximum level in plasma was attained ([1]; oral dosing 10 mg kg^−1, rat): 30 min
time for which 667 COUMATE could be detected in plasma ([1]; single 10 mg kg^−1 i.v. or p.o. dose, rat): up to 8 h
stability in vehicle ([2]; THF : PEG-400 : water 1:6:3, on ice for up to 6 h): stable
